Earlier results, collected in article PMC9301952 (ACS Omega, 2022).

System: mouse
Conditions: behavioral assay used to predict psychedelic drug activity

## CNCCc1c[nH]c2cccc(OP(=O)(O)O)c12 [baeocystin, 4-phosphoryloxy-N-methyltryptamine]
  activity in the mouse head twitch assay: neither compound is active

## CNCCc1c[nH]c2cccc(O)c12 [norpsilocin, 4-hydroxy-N-methyltryptamine]
  activity in the mouse head twitch assay: neither compound is active
